Experimental data from patent US8404640B2 (priority 2006, dated 2013).

What was measured:
Dnmt1 = target: T1, Dnmt1 (Homo sapiens, UniProt P26358); assay: Immunoblot of extractable Dnmt1 in 5-aza-treated HCT116 cells; format: cell-based; details: increasing concentrations of 5-aza
T1 construct: endogenous in cells; host or cells: HCT116 (ATCC CCL-247)
Source text: (§1) Human colorectal carcinoma cell lines. HT29 (HTB-38), HCT116 (CCL-247), Caco2 (HTB-37), T84 (CCL-248) colonic carcinoma cells were purchased from the American Type Culture Collection (ATCC, Rockville, Md.) and maintained as previously described (Smith, J. M., et al. (2005) Am. J. Physiol Gastrointest. Liver Physiol 288, 316-26; Dwinell, M. B., et al. (2001) Gastroenterology 120, 49-59). Dnmt1, Dnmt3b or Dnmt1/Dnmt3b double knockout HCT116 cells were the kind gift of Dr. Bert Vogelstein (John Hopkins University School of Medicine) and were maintained similarly to wild-type HCT116 cells. In some experiments, carcinoma cells were treated with 5-aza (EMD Biosciences, La Jolla, Calif.) every 24 hr for the indicated number of days.
Immunoblot analysis. For the detection of Dnmt1, Dnmt3b and actin, whole cell lysates were prepared as previously described (Smith, J. M., Johanesen, P. A., Wendt, M. K., Binion, D. G., and Dwinell, M. B. (2005). CXCL12 activation of CXCR4 regulates mucosal host defense through stimulation of epithelial cell migration and promotion of intestinal barrier integrity. Am. J. Physiol Gastrointest. Liver Physiol 288, 316-26), and 10 or 25 μg of protein size separated using reducing SDS-PAGE. Equal protein loading was confirmed by Coomassie blue staining. […]

CXCL12 mRNA expression = assay: RT-PCR analysis of CXCL12 and CXCR4 mRNA in 5-aza-treated colonic carcinoma cells; format: cell-based, human; details: for CXCL12 mRNA expression: indicated concentrations for five days
Source text: as §1
RT-PCR analysis. Total RNA was isolated from cultured cells and colonic crypt epithelium using TRIzol reagent (Invitrogen, Carlsbad, Calif.), DNase treated (Ambion, Austin, Tex.) and 2 μg of total RNA was converted to cDNA via reverse transcription using random priming in a 40 μl volume. CXCL12, CXCR4, and β-actin mRNA transcripts were amplified using previously described PCR primers and conditions (Heidemann, J., et al. (2004) Am. J. Physiol Gastrointest. Liver Physiol 286, G1059-G1068; Smith, J. M., et al. (2005) Am. J. Physiol Gastrointest. Liver Physiol 288, 316-26). Other PCR analyses were conducted using listed primer pairs and conditions (Table S1). […] in cDNA synthesis reactions as a negative control.

CXCL12 promoter = assay: Methylation-specific PCR of the CXCL12 promoter in 5-aza-treated cells; format: cell-based, human
Protocol: Methylation Specific PCR and Bisulphite Sequencing PCR. Genomic DNA from cell lines and colonic crypt preparations was isolated using the Genomic DNA wizard kit (Promega, Madison, Wis.) or TRIzol according to the manufacturer's instructions. […] DNA (2 μg) was denatured in 0.3M NaOH at 42° C. for 20 min in a 111 μl reaction volume. To this 1.2 ml of sodium bisulphite solution (4.5M NaHSO3, 0.02M hydroquinone, and pH 5.0) was added and incubated 16 hrs at 55° C. This reaction was desalted using DNA Purification Wizard (Promega) and the DNA was desulfonated in 0.3M NaOH at 37° C. for 20 min. The converted DNA was precipitated at −20° C., overnight in 75% ethanol containing 0.7M ammonium acetate and 0.05 mg/ml of glycogen, reconstituted in 50 μl of water, and 4.0 μl used in each 50 μl PCR reaction using 0.5 μM of specific MSP primers (Table S1).

[1] = system: CXCL12 protein expression; assay: Immunofluorescence microscopy of CXCL12 protein in 5-aza-treated HCT116 cells; format: cell-based, human; details: 2.5 μM 5-aza, 3 days
Protocol: Immunofluorescence microscopy. HCT116 epithelial cells were plated to glass chamber slides and grown for 3-days in untreated or 5-aza containing media. Cells were stained with mouse mAb specific for CXCL12 (clone #79018.111, R&D Systems) or a nonspecific mouse IgG control antibody (BD Pharmingen, San Jose, Calif.). CXCL12 protein and IgG background staining was visualized using Alexa Fluor 594 conjugated goat anti-mouse antibody (Molecular Probes, Eugene, Oreg.). Nuclei were visualized with a DAPI counterstain.

[2] = system: CXCR4-expressing U937 monocytic cells; assay: Leukocyte chemotaxis assay (Transwell, U937 monocytes over epithelial monolayers); format: cell-based, human
Protocol: Leukocyte chemotaxis assay. HT29 or HCT116 cells were plated and grown to confluence in 24-well dishes. Cells were then serum starved for 2 days. Calcein-AM (Molecular Probes) loaded U937 monocytes (5×10^5) were plated to the upper well of a Transwell chemotaxis chamber (5 μm pore size, Corning Costar, Corning, N.Y.), with the serum-starved epithelial monolayers in the bottom chamber. U937-epithelial co-cultures were supplemented with the CXCR4 receptor antagonist AMD3100 (5 μg/ml) or remain untreated as a control. U937 cells were incubated without epithelial cells or, as a separate control, epithelial cells alone, were used to establish constitutive chemotaxis or auto-fluorescence respectively. U937 cells were incubated with epithelial cells for 3 hr and the number of migrated calcein-loaded monocytes in the bottom chamber quantified by fluorescence spectroscopy (Victor Wallac, Perkin Elmer).

T1 sequence (P26358 whole entry): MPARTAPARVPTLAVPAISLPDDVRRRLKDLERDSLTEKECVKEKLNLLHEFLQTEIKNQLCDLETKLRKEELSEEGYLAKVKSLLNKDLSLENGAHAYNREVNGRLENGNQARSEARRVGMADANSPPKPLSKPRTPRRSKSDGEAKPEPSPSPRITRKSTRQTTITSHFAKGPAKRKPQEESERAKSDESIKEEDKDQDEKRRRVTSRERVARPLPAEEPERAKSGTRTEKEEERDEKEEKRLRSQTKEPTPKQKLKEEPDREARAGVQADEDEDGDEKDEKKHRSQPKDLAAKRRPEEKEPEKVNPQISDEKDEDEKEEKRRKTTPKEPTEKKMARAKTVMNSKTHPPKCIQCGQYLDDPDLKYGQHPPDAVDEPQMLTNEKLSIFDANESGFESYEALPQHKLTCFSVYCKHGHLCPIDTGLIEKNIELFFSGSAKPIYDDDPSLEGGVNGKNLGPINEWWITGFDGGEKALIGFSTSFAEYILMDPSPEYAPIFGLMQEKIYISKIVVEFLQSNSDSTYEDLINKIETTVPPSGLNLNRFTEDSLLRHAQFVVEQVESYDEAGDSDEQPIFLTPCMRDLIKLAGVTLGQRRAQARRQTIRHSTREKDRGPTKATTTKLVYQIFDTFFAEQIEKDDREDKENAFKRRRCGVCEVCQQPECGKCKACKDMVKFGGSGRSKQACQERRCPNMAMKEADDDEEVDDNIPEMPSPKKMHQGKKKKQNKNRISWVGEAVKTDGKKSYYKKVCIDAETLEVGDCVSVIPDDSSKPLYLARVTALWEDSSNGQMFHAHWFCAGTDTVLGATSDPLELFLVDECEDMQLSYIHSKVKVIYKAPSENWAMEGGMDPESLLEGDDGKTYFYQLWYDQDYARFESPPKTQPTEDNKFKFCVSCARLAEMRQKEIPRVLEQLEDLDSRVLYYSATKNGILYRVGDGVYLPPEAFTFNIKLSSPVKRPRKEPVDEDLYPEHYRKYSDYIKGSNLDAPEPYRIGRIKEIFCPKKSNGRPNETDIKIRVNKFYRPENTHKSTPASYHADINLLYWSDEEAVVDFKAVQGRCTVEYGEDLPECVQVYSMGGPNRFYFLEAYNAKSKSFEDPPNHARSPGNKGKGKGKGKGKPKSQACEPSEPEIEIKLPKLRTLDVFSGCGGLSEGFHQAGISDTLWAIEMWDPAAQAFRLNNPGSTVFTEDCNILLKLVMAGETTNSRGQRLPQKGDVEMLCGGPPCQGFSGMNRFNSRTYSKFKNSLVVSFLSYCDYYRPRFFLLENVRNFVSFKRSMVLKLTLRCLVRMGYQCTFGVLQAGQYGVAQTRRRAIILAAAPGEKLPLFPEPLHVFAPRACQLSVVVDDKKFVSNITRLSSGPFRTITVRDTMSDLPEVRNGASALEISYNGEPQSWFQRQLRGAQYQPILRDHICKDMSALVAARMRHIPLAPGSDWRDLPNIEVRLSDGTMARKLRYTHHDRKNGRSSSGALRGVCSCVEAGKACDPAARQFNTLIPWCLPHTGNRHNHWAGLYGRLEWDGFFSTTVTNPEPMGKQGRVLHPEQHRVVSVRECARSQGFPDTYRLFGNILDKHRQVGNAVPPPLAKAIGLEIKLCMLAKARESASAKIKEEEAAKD

## Nc1ncn([C@H]2C[C@H](O)[C@@H](CO)O2)c(=O)n1 [5-aza, 5-aza-2′-deoxycytidine]
Dnmt1
  extractable levels of Dnmt1: ablated
CXCL12 mRNA expression; Caco2 cells (data not shown)
  CXCL12 gene re-expression: similarly fostered gene re-expression
CXCL12 mRNA expression; HCT116 cells
  CXCL12 mRNA expression: dose-dependently restored
CXCL12 mRNA expression; HT29 and HCT116 cells with 5-aza treatment
  CXCR4 mRNA levels: remained unchanged
CXCL12 mRNA expression; HT29 cells
  CXCL12 mRNA expression: dose-dependently restored
CXCL12 mRNA expression; HT29 or HCT116 cells, 2.5 μM 5-aza for 3-6 days
  time of maximal CXCL12 re-expression: 5 days
CXCL12 mRNA expression; T84 cells (data not shown)
  CXCL12 gene re-expression: similarly fostered gene re-expression
CXCL12 promoter; HCT116 cells, 2.5 μM 5-aza, 3 days
  methylation of the CXCL12 promoter: inhibited
CXCL12 promoter; HT29 cells (data not shown)
  methylation of the CXCL12 promoter: inhibited
[1]
  CXCL12 protein expression by immunofluorescence: detected

## c1cc(CN2CCCNCCNCCCNCC2)ccc1CN1CCCNCCNCCCNCC1 [AMD3100]
[2]; AMD3100 5 μg/ml, 3 hr
  chemotaxis of U937 cells toward CXCL12-expressing HT29 and HCT116 cells: potently blocked migration

## CXCL12: alpha type 7.8 kDa CXC chemokine, here secreted by stably transfected HT29 and HCT116 cells
[2]; CXCL12 secreted from HT29 and HCT116 stable transfectants
  ability to stimulate chemotaxis of U937 cells: functional
